What was measured:
[1] = system: BCL-2-addicted H23 cells; test: Treatment of engineered H23 cell lines with BCL-2, BCL-XL and MCL-1 inhibitors to confirm selective addiction; assay type: cell-based, human; details: BCL-2-addicted H23 cells (BCL-2 overexpression, MCL-1 knockdown); FIG. 3B
[2] = system: A549 cells; test: ABT-737-induced apoptosis after knockdown of MCL-1; assay type: cell-based, human; details: A549 cells with knockdown of MCL-1
[3] = system: parental H23 cells; test: Treatment of parental (MCL-1-addicted) H23 cells with BCL-2, BCL-XL and MCL-1 inhibitors; assay type: cell-based, human; details: parental H23 cells (MCL-1-addicted); FIG. 3B
[4] = system: BCL-XL-addicted H23 cells; test: Treatment of engineered H23 cell lines with BCL-2, BCL-XL and MCL-1 inhibitors to confirm selective addiction; details: BCL-XL-addicted H23 cells (BCL-XL overexpression, MCL-1 knockdown); FIG. 3B
Text: Isogenic H23 cancer cell lines with selective addiction to MCL-1, BCL-2, or BCL-XL.

[5] = system: MCL-1-IRES-BIM or MCL-1-IRES-PUMA MEFs; test: Apoptosis induction by BH3-only proteins in engineered MEFs; assay type: cell-based, mouse; details: MCL-1-addicted MEFs; FIGS. 2A and 2B
Text: (§1) Cellular dependency on BCL-2, BCL-XL or MCL-1 for survival is governed by the relative abundance among these proteins (FIG. 1). Intricate interplays among the BCL-2 subfamilies govern cellular survival/death, and also provide a molecular blueprint concerning the clinical application of BH3-mimetics in killing cancer cells. Using MEFs that express different combinations of anti-apoptotic BCL-2 members and activator BH3s, a system has been built that can distinguish between the inhibition of BCL-2/BCL-XL and MCL-1 by BAD/BAD mimetics and […]/NOXA mimetics, respectively (FIGS. 2A and 2B).
(§2) Importantly, this system mimics the “primed” cell death state of many cancers with abundant pre-assembled complexes of BCL-XL/BIM, BCL-XL/PUMA, BCL-2/BIM, BCL-2/PUMA, MCL-1/BIM or MCL-1/PUMA. […] In addition, compounds that downregulate MCL-1 mRNA and/or protein or induce endogenous NOXA, BIM, or PUMA will trigger similar death patterns.

[6] = system: wild-type cells; test: Sensitivity of wild-type cells to BH3-only proteins; assay type: cell-based, mouse; details: wild-type cells lacking pre-assembled cell death priming complexes; FIG. 2B
Text: as §2

[7] = target: MCL-1 (Homo sapiens, UniProt Q07820); details: background statement; cited from earlier work
Sequence of MCL-1 (Q07820 whole entry): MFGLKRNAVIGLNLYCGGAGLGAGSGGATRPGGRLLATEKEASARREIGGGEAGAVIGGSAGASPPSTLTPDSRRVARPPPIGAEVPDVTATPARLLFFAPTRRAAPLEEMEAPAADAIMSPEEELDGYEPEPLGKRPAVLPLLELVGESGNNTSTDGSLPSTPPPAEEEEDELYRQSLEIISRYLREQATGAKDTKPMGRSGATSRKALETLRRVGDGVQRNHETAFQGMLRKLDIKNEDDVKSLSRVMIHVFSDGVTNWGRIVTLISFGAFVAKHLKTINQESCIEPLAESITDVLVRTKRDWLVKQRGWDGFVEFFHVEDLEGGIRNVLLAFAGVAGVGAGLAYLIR

[8] = system: BCL-XL-IRES-BIM, BCL-XL-IRES-PUMA, BCL-2-IRES-BIM or BCL-2-IRES-PUMA MEFs; test: Apoptosis induction by BH3-only proteins in engineered MEFs; assay type: cell-based, mouse; details: BCL-XL- or BCL-2-addicted MEFs; FIGS. 2A and 2B
Text: as §1, §2

## CN(C)CC[C@H](CSc1ccccc1)Nc1ccc(S(=O)(=O)NC(=O)c2ccc(N3CCN(Cc4ccccc4-c4ccc(Cl)cc4)CC3)cc2)cc1[N+](=O)[O-] [ABT-737, (R)-4-(4-((4′-chloro-[1,1′-biphenyl]-2-yl)methyl)piperazin-1-yl)-N-((4-((-4-(dimethylamino)-1-(phenylthio)butan-2-yl)amino)-3-nitrophenyl)sulfonyl)benzamide]
[1]
  sensitivity of cells to inhibitor: sensitive
[2]
  susceptibility to ABT-737-induced apoptosis: susceptible
[3]
  sensitivity of cells to inhibitor: only sensitive to inhibitors of MCL-1
[4]
  sensitivity of cells to inhibitor: sensitive

## NOXA: pro-apoptotic BH3-only member of the BCL-2 protein family that specifically inactivates MCL-1 (MPGKKARKNAQPSPARAPAELEVECATQLRRFGDKLNFRQKLLNLISKLFCSGT; UniProt Q13794 1-54, looked up)
[5]
  induction of apoptosis: selectively induces apoptosis
[6]
  sensitivity of wild-type cells: less sensitive

## CC1(C)CCC(c2ccc(Cl)cc2)=C(CN2CCN(c3ccc(C(=O)NS(=O)(=O)c4ccc(N[C@H](CCN5CCOCC5)CSc5ccccc5)c(S(=O)(=O)C(F)(F)F)c4)cc3)CC2)C1 [ABT-263]
[7]
  inhibition of MCL-1: fail to inhibit

B1: BAD: pro-apoptotic BH3-only BCL-2 family protein that binds to BCL-XL and BCL-2 but not MCL-1 (protein, UniProt Q92934 1-168, looked up)
Bcl2-associated agonist of …: MFQIPEFEPSEQEDSSSAERGLGPSPAGDGPSGSGKHHRQAPGLLWDASHQQEQPTSSSHHGGAGAVEIRSRHSSYPAGTEDDEGMGEEPSPFRGRSRSAPPNLWAAQRYGRELRRMSDEFVDSFKKGLPRPKSAGTATQMRQSSSWTRVFQSWWDRNLGRGSSAPSQ
[8]
  induction of apoptosis: induces apoptosis
[6]
  sensitivity of wild-type cells: less sensitive

Reference: US20180335421A1, “METHOD FOR SCREENING INHIBITORS TARGETING ANTI-APOPTOTIC SURVIVAL PATHWAYS” (Memorial Sloan-Kettering Cancer Center, priority 2015, published 2018)
